One data set concerns intestinal organoids. Briefly: Cell Counting Kit 8 cytotoxicity assay in intestinal organoids. Type of data set: cell-based, porcine. To be noted: PM at concentrations less than 30 mM, 24 h. On the procedure:
Fig 2 PM restricts TGEV and PRCV infection in porcine intestinal organoids. (A) Intestinal organoids cultured in 96-well plate were incubated with different concentrations of PM for 24 h, which was tested by Cell Counting Kit 8. (B and C) The intestinal organoids monolayer was treated with indicated PM and infected with TGEV Miller (0.1 MOI) for 24 h, which was measured by IFA (B), scale bar: 50 µm, RT-qPCR, TCID50, and western blot (C). (D) Apical-out intestinal organoids were treated with indicated PM and infected TGEV Miller (1 MOI) for 48 h, which was determined by RT-qPCR, TCID50, and western blot. (E and F) The intestinal organoids monolayer was treated with different concentrations of PM and infected with PRCV for 24 h, which was determined by IFA (E), scale bar: 50 µm, RT-qPCR, TCID50, and western blot (F). (G) Apical-out intestinal organoids were treated with indicated PM and infected PRCV (1 MOI) for 48 h, which was detected by RT-qPCR, TCID50, and western blot. Results are presented as mean ± SD of data from three independent experiments. **, P ≤ 0.01; ***, P ≤ 0.001.
ST cells or intestinal organoids cultured in a 96-well plate were incubated with different concentrations of PM (0, 0.1, 0.25, 0.5, 1, 2.5, 5, 10, 20, and 30 mM) for 24 h. […] The absorbance of each well was then measured at 450 nm using a microplate reader to determine cell viability.

In data set [1] the test system is autophagy markers P62 and LC3. Description: Autophagy markers P62 and LC3 in ST cells (western blot). Type of data set: cell-based, swine. To be noted: PM 10 mM; for LC3 (LC3-Ⅱ) level, western blot, relative to WT without PM (=1) / P62 level, western blot, relative to WT without PM (=1): PRCV 0.1 MOI, 16 h. On the procedure: Fig 6 PM degrades APN by autophagy-lysosome pathway. (A) ST cells were treated with PM (10 mM) and infected with TGEV (0.1 MOI) in the presence and absence of MG132 (20 µM), 3-MA (20 mM), and Z-VAD-FMK (20 µM) for 16 h. The APN expression and TGEV N were detected by western blot. (B) ST cells were treated with PM (10 mM) at 2, 4, 8, and 16 h, autophagy markers P62 and LC3, and APN were measured by western blot. (C) ST cells were transfected with RFP-EGFP-LC3B for 12 h and then treated with PM (10 mM) or H2O for 36 h. The fluorescence of GFP and RFP was detected by confocal microscopy, scale bar: 5 µm. (D) Quantification of autophagosomes (Merge) and autolysosomes (RFP) from C using Image J software. (E) ST cells were treated with PM or H2O for 24 h. The autophagosomes (yellow arrow) and autolysosomes (asterisk) were detected by transmission electron microscope, scale bar: 2 µm. (F) The number of autophagosomes (yellow arrow) and autolysosomes (asterisk) was quantified. All western blot results were calculated by Image J. Results are presented as mean ± SD of data from three independent experiments. ***, P ≤ 0.001.
Cotransfected cells were washed with cold PBS twice and lysed with NP40 lysis buffer (Beyotime, China, P0013F) supplemented with 1 mM PMSF (Beyotime, China, ST506) and phosphatase inhibitors (Beyotime, China, P1096). Lysis buffer containing cells was added to 20 µL of protein A+G agarose beads (Beyotime, China, P2055) and IgG (Santa Cruz, USA, 2025) on a rotating device for 4 h at 4°C to remove nonspecific proteins, after which the mixture was centrifuged at 2,500 rpm for 5 min. The supernatant was harvested, and anti-Flag/Myc/His/IgG antibodies were added to the samples on a rocking platform overnight at 4°C. Subsequently, 40 µL of protein A+G agarose beads were added to the supernatant containing the antibody, which was incubated for 4 h at 4°C on a rotating device. After washing with lysis buffer three times, the immunoprecipitates were collected by centrifugation, and the supernatant was discarded. Immunoprecipitated proteins were detected by western blotting. For the western blot, the proteins were separated by SDS‒PAGE and transferred onto a PVDF membrane (GE, USA, 10600023). The membranes were blocked in 5% nonfat milk at room temperature for 2 h and then incubated with specific primary antibodies overnight. Subsequently, the membrane was incubated with the secondary antibody for 1 h at room temperature. Finally, the proteins on the membranes were visualized with WesternBright ECL (Advansta, USA, K-12045-D50).
Fig. S8. PM inhibits PRCV infection by degrading APN via PIK3C3-mediated autophagy. (A-C) WT ST cells and PIK3C3 KO ST cells were treated with PM (10 mM) and infected with PRCV (0.1 MOI) for 16 h. Then the APN, PIK3C3, ATG14, BECN1, P62, PRCV N and LC3 were detected by western blot (A), and viral titers and PRCV N mRNA level were determined by TCID50 (B) and RT-qPCR (C) . (D-F) WT ST cells and PIK3C3 KO ST cells transfected with pCMV-Myc and pCMV-Myc-PIK3C3 respectively for 24 h were treated with PM (10 mM) and infected with PRCV (0.1 MOI) for 16 h. The APN, PIK3C3, P62, PRCV N and LC3 were determined by western blot (D). TCID50 (E) and RT-qPCR (F) were performed to detect viral titers and PRCV N m RNA level. All western blot results were calculated by Image J. Results are presented as mean ± SD of data from three independent experiments (also on this page, place not known: 6 8 10 12 Viral load(log copies/ul) *** 2 4 6 8 log10 TCID50/ml *** 6 8 10 12 + Viral load(log copies/ul) PIK3C3-Myc + - + + + *** *** 2 4 6 8 log10 TCID50/ml *** + + + + PIK3C3-Myc - - - + - + + + *** WT KO PM (C). WT KO PM PRCV PM - + + PRCV + + + WT PIK3C3 KO PIK3C3 PRCV PIK3C3-Myc - - - + PM - + + + PRCV + + + + WT PIK3C3 KO 0 0) […]

Setting [2] is: Fig. S8D, PIK3C3 KO ST cells with PIK3C3-Myc.
Where [3] appears, read: Fig. S8D, PIK3C3 KO ST cells without PIK3C3-Myc.
[4] abbreviates: Fig. S8D, WT ST cells with pCMV-Myc.

Consider `[K+].[K+].[O]=[Mo](=[O])([O-])[O-]` [PM, potassium molybdate], for which, in the data set on intestinal organoids, the “cytotoxicity (Cell Counting Kit 8)” value was “did not cause significant cytotoxicity”. Besides, the “LC3 (LC3-Ⅱ) level, western blot, relative to WT without PM (=1)” value in data set [1] (Fig. S8A, PIK3C3 KO ST cells) was 0.95; in data set [1] (Fig. S8A, WT ST cells) it was 3.42; in data set [1] (setting [2]), 3.45; in data set [1] (setting [3]) it was 1.12; in data set [1] (setting [4]) it was 3.61. The “P62 level, western blot, relative to WT without PM (=1)” value is listed as 0.83 in data set [1] (Fig. S8A, PIK3C3 KO ST cells); 0.16 in data set [1] (Fig. S8A, WT ST cells); 0.27 in data set [1] (setting [2]); 0.91 in data set [1] (setting [3]); 0.26 in data set [1] (setting [4]). In addition, the “LC3-II generation from LC3-I” value in data set [1] (ST cells, 2-16 h, western blot) is “more of the autophagosome protein LC3-II was generated”. The p62 level result in data set [1] (ST cells, 2-16 h, western blot) is listed as “p62 was consumed”.
